# Laboratory results from ChEMBL document CHEMBL4316584, “All that glitters is not gold: Panning cytotoxic natural products and derivatives with a fused tricyclic backbone by the estimation of their leadlikeness for cancer treatment” (Eur J Med Chem, 2019).
# Tested on: HeLa
# Assay: Cytotoxicity against human HeLa cells after 48 hrs by MTT assay
# Format: functional, cell-based
# Details: not given
row,Structure (SMILES),IC50 [µM]
1,Cc1cccc2c1ccc1cc(C(C)CO)c(=O)oc12 (configuration not stated),0.86
2,CC(C)c1cc(C(=O)O)c2c(c1O)O[C@H]1C(C)(C)CCC[C@]21C,17.8
3,CC(C)c1ccc2c(c1)CC[C@H]1[C@](C)(C(=O)NC(=S)N[C@@H](Cc3ccccc3)C(=O)Nc3ccccn3)CCC[C@]21C,6.58
4,CC(C)c1ccc2c(c1)CC[C@H]1[C@](C)(CO)CCC[C@]21C [POMIFERIN A],15.7
5,COc1cc2oc3cc(O)c(OC)c(CC=C(C)C)c3c(=O)c2c(O)c1CC=C(C)C,12.8
6,COc1cc2c(=O)c3c(O)c(C/C=C(\C)CCC=C(C)C)c(O)cc3oc2cc1O [COWAXANTHONE],15.8
7,CC(C)c1ccc2c(c1)CC[C@H]1[C@](C)(C(=O)NC(=S)N[C@@H](Cc3ccccc3)C(=O)Nc3ccc(Cl)cc3)CCC[C@]21C,17.2
8,COc1c(O)cc2oc3cc(O)c(CC=C(C)C)c(O)c3c(=O)c2c1C/C=C(\C)CCC=C(C)C [COWANIN],11.7
9,Cc1ccccc1NC(=O)[C@H](Cc1ccccc1)NC(=S)NC(=O)[C@]1(C)CCC[C@]2(C)c3ccc(C(C)C)cc3CC[C@@H]12,17.7
10,CC(C)C1=C(O)C(=O)C2=C(C=C[C@H]3C(C)(C)CCC[C@]23C)C1=O,6.56
11,CC(=O)N1N=C(c2cccs2)CC1c1cc2c([nH]c3ccccc32)c(-c2ccc(C(F)(F)F)cc2)n1 (configuration not stated),19
12,CCOc1ccc(/C=C2\CCc3c([nH]c4ccc(C)cc34)C2=O)cc1OCC,0.8
13,CC(=O)N1N=C(c2cccs2)CC1c1cc2c([nH]c3ccccc32)c(-c2ccc(F)c(F)c2)n1 (configuration not stated),8.7
14,CC(C)c1ccc2c(c1)CC[C@H]1[C@](C)(C(=O)NC(=S)N[C@@H](C)C(=O)Nc3ccccc3Cl)CCC[C@]21C,19.7
15,CC(=O)N1N=C(c2ccc[nH]2)CC1c1cc2c([nH]c3ccccc32)c(-c2ccc(C(F)(F)F)cc2)n1 (configuration not stated),6.24
16,Cc1ccc(NC(=O)[C@H](Cc2ccccc2)NC(=S)NC(=O)[C@]2(C)CCC[C@]3(C)c4ccc(C(C)C)cc4CC[C@@H]23)cc1,19.1
17,Cc1cccc2c1ccc1cc(C(C)C)c(=O)oc12,7.92
18,COc1cc(-c2nc(C3CC(c4cccs4)=NN3C(C)=O)cc3c2[nH]c2ccccc23)cc(OC)c1OC (configuration not stated),4.51
19,CC(C)c1ccc2c(c1)CC[C@H]1[C@](C)(C(=O)NC(=S)N[C@@H](Cc3ccccc3)C(=O)Nc3ccccc3F)CCC[C@]21C,18.8
20,COc1cc(-c2nc(Cn3cc(CN4C(=O)c5ccc(C)cc5C4=O)nn3)cc3c2[nH]c2ccccc23)cc(OC)c1OC,15.6
21,CC(C)c1ccc2c(c1)CC[C@H]1[C@](C)(C(=O)NC(=S)N[C@@H](Cc3ccccc3)C(=O)Nc3ccccc3Cl)CCC[C@]21C,17
22,CC(C)c1ccc2c(c1)CC[C@H]1[C@](C)(C(=O)NC(=S)N[C@@H](Cc3ccccc3)C(=O)Nc3ccc(Br)cc3)CCC[C@]21C,15.7
23,COc1ccc(-c2nc(/C=C/C(=O)c3ccc(N)cc3)cc3c2[nH]c2ccccc23)cc1OC,13.5
24,COc1cc(NC(=O)[C@H](C)NC(=S)NC(=O)[C@]2(C)CCC[C@]3(C)c4ccc(C(C)C)cc4CC[C@@H]23)cc(OC)c1OC,18.1

row,Structure (SMILES),IC50 [µM]
1,COc1c(O)cc2oc3cc(O)c(C/C=C(/C)CO)c(O)c3c(=O)c2c1C/C=C(\C)CCCC(C)(C)O,16.7
2,CCOc1ccc(/C=C2\CCc3c([nH]c4c(C)cccc34)C2=O)cc1OCC,1.5
3,CC(C)c1ccc2c(c1)CC[C@H]1[C@](C)(C(=O)NC(=S)N[C@@H](Cc3ccccc3)C(=O)Nc3cccc4ccccc34)CCC[C@]21C,12.8
4,CC(C)c1ccc2c(c1)CC[C@H]1[C@](C)(C(=O)NC(=S)N[C@@H](C)C(=O)Nc3ccccn3)CCC[C@]21C,14.3
5,COc1ccc(NC(=O)[C@H](Cc2ccccc2)NC(=S)NC(=O)[C@]2(C)CCC[C@]3(C)c4ccc(C(C)C)cc4CC[C@@H]23)cc1,15.6
6,C=CCc1cc2oc3cc(OC)cc(O)c3c(=O)c2c(OC)c1O,18.7
7,Cc1cc(C)cc(NC(=O)[C@H](C)NC(=S)NC(=O)[C@]2(C)CCC[C@]3(C)c4ccc(C(C)C)cc4CC[C@@H]23)c1,18.6
8,CCOc1ccc(/C=C2\CCc3c([nH]c4ccc(Cl)cc34)C2=O)cc1OCC,2.73
9,CC(C)c1ccc2c(c1)CC[C@H]1[C@](C)(C(=O)NC(=S)N[C@@H](C)C(=O)Nc3ccc(Br)cc3)CCC[C@]21C,19
10,COc1c(O)cc2oc3cc(O)c(C/C=C(/C)CO)c(O)c3c(=O)c2c1CCC(C)(O)CCC=C(C)C (configuration not stated),17.2
11,COc1cc(NC(=O)[C@H](Cc2ccccc2)NC(=S)NC(=O)[C@]2(C)CCC[C@]3(C)c4ccc(C(C)C)cc4CC[C@@H]23)cc(OC)c1OC,17.5
12,CC(C)c1ccc2c(c1)CC[C@H]1[C@](C)(C(=O)NC(=S)N[C@@H](Cc3ccccc3)C(=O)Nc3ccccc3Br)CCC[C@]21C,12.7
13,COc1cc(-c2nc(/C=C/C(=O)c3ccc(F)cc3)cc3c2[nH]c2ccccc23)cc(OC)c1OC,13.4
14,COc1cc(-c2nc(/C=C/C(=O)c3ccc(O)cc3)cc3c2[nH]c2ccccc23)cc(OC)c1OC,12.5
15,Nc1ccc(C(=O)/C=C/c2cc3c([nH]c4ccccc43)c(-c3ccc(F)cc3)n2)cc1,18.5
16,Cc1cc(C)cc(NC(=O)[C@H](Cc2ccccc2)NC(=S)NC(=O)[C@]2(C)CCC[C@]3(C)c4ccc(C(C)C)cc4CC[C@@H]23)c1,15.8
17,O=C(/C=C/c1cc2c([nH]c3ccccc32)c(-c2ccc(C(F)(F)F)cc2)n1)c1cccs1,9.54
18,NCCCCNCCNCc1c2ccccc2c(CNCCNCCCCN)c2ccccc12,20
19,COc1cc(-c2nc(/C=C/C(=O)c3cccs3)cc3c2[nH]c2ccccc23)cc(OC)c1OC,6.91
20,CC(C)c1cc2c(cc1O)[C@@]1(C)CCCC(C)(C)[C@@H]1[C@@H](O)C2=O,7.7
21,CC(=O)N1N=C(c2ccco2)CC1c1cc2c([nH]c3ccccc32)c(-c2ccc(F)c(F)c2)n1 (configuration not stated),3.38
22,COc1cc(-c2nc(/C=C/C(=O)c3ccc(N)cc3)cc3c2[nH]c2ccccc23)ccc1F,15.2
23,O=C(/C=C/c1cc2c([nH]c3ccccc32)c(-c2ccc(C(F)(F)F)cc2)n1)c1ccc[nH]1,7.24

# Tested on: HCT-116
# Assay: Cytotoxicity against human HCT116 cells after 48 hrs by MTT assay
# Format: functional, cell-based
# Details: HCT-116, 48 h
row,Structure (SMILES),IC50 [µM]
1,CCCCCCOc1cccc2c1C(=O)c1c(OCCCCCC)cc(Cn3cnc4c(N)ncnc43)cc1C2=O,8.1
2,CCCCCCSC1=C(SCCCCCC)C(=O)c2c(O)c3c(c(O)c2C1=O)C[C@@H](O)[C@@](C)(O)C3,2.94
3,Cn1c2c(c3ccccc31)CCC(CN1CCOCC1)C2=O (configuration not stated),4.73
4,Nc1ncnc2c1ncn2Cc1cc(O)c2c(c1)C(=O)c1cccc(O)c1C2=O,7.8
5,C[C@]1(O)Cc2c(O)c3c(c(O)c2C[C@H]1O)C(=O)C=C(N1CCCCC1)C3=O,16.3
6,CCCCCCNC1=CC(=O)c2c(O)c3c(c(O)c2C1=O)C[C@](C)(O)[C@H](O)C3,3.14
7,CC(=O)OC[C@]12Oc3ccc(-c4ccc5c(c4O)C(=O)C4=C(O)C[C@@H](C)[C@@H](OC(C)=O)[C@@]4(CO)O5)c(O)c3C(=O)C1=C(O)C[C@@H](C)[C@H]2OC(C)=O [DICERANDROL B],3.94
8,CC(=O)O[C@@H]1[C@H](C)CC(O)=C2C(=O)c3c(ccc(-c4ccc5c(c4O)C(=O)C4=C(O)C[C@@H](C)[C@@H](OC(C)=O)[C@@]4(CO)O5)c3O)O[C@@]21CO [DICERANDROL A],2.64
9,CNC1=CC(=O)c2c(O)c3c(c(O)c2C1=O)C[C@](C)(O)[C@H](O)C3,16.6
10,O=c1c2ccc(O)c(O)c2oc2c(O)c(O)ccc12,18.5
11,O=c1c2ccc(O)cc2oc2cc(O)cc(O)c12,19.8
12,CCN(C)CC1CCc2c(n(C)c3ccccc23)C1=O (configuration not stated),11.8
13,CCSC1=C(SCC)C(=O)c2c(O)c3c(c(O)c2C1=O)C[C@](C)(O)[C@H](O)[C@H]3O,0.95
14,CC1CCN(C2=CC(=O)c3c(O)c4c(c(O)c3C2=O)C[C@](C)(O)[C@H](O)C4)CC1,14.9
15,C[C@]1(O)Cc2c(O)c3c(c(O)c2[C@H](O)[C@H]1O)C(=O)C=C(Nc1ccccc1)C3=O,4.84
16,Cn1c2c(c3ccccc31)CCC(Cn1ccnc1)C2=O (configuration not stated),3.12
17,C[C@]1(O)Cc2c(O)c3c(c(O)c2[C@H](O)[C@H]1O)C(=O)C=C(NCc1ccc(F)cc1)C3=O,4.92
18,Cn1c2c(c3ccccc31)CCC(CN1CCCCC1)C2=O (configuration not stated),2.33

row,Structure (SMILES),IC50 [µM]
1,CC(C)=CCc1c(O)cc(O)c2c(=O)c3c(O)cccc3oc12,10.8
2,Cn1c2c(c3ccccc31)CCC(CN1CCCC1)C2=O (configuration not stated),12.8
3,COC1=CC(=O)c2c(cc3c(c2O)C[C@@H](O)[C@@](C)(O)C3)C1=O [NIGROSPORIN B],4.7
4,COc1cc(O)c2c(c1)C(=O)C1=C(C[C@@H](O)[C@@](C)(O)[C@@H]1O)C2=O [ALTERSOLANOL C],3.03
5,CCCCSC1=C(SCCCC)C(=O)c2c(O)c3c(c(O)c2C1=O)C[C@@H](O)[C@@](C)(O)C3,2.75
6,CCCCNC1=CC(=O)c2c(O)c3c(c(O)c2C1=O)C[C@](C)(O)[C@H](O)C3,3.29
7,CN1CCN(CC2CCc3c(n(C)c4ccccc34)C2=O)CC1 (configuration not stated),14
8,CC(C)=CCn1c2c(c3ccccc31)CCC(CN1CCOCC1)C2=O (configuration not stated),4.55
9,C[C@]1(O)Cc2c(O)c3c(c(O)c2C[C@H]1O)C(=O)C=C(NCc1ccc(F)cc1)C3=O,7.09
10,CCCCn1c2c(c3ccccc31)CCC(CN1CCOCC1)C2=O (configuration not stated),5.82
11,C[C@]1(O)Cc2c(O)c3c(c(O)c2[C@H](O)[C@H]1O)C(=O)C(SCCCO)=C(SCCCO)C3=O,3.08
12,COC1=CC(=O)c2c(O)c3c(c(O)c2C1=O)C[C@](C)(O)[C@H](O)[C@H]3O [BOSTRYCIN],4.78
13,CC1CCN(C2=CC(=O)c3c(O)c4c(c(O)c3C2=O)C[C@](C)(O)[C@H](O)[C@H]4O)CC1,3.25
14,CCOC(=O)CN(C)CC1CCc2c(n(C)c3ccccc23)C1=O (configuration not stated),18.9
15,O=C1c2cccc(O)c2C(=O)c2c(O)cc(Cn3cc(F)c(=O)[nH]c3=O)cc21,2.8
16,CC(=O)O[C@@H]1[C@H](C)CC(O)=C2C(=O)c3c(ccc(-c4ccc(O)c5c4O[C@@]4(CO)C(=C(O)C[C@@H](C)[C@H]4OC(C)=O)C5=O)c3O)O[C@@]21CO,7.12
17,Cc1nccc2c3ccccc3n(CCCCn3c4ccccc4c4ccnc(C)c43)c12,3.58
